≈ marks a conversion by molar mass, not a printed value.

Details in one data set: not given
As for `Clc1ccccc1-c1nnc(-c2ccccc2Cl)nn1`, the logP (commonly the decadic logarithm of the partition coefficient of the neutral form, usually between octanol and water) came to 3.1.
For `CCOC(=O)CCN(SN(C)C(=O)Oc1cccc2c1OC(C)(C)C2)C(C)C`, the logP amounted to 4.3.
Turning to `CC1=C(C)S(=O)(=O)CCS1(=O)=O`, the logP was -0.17.
The compound `CC(C)C1CCC(Cc2ccc(Cl)cc2)C1(O)Cn1cncn1` (centres undefined) came in with a log partition coefficient (logP) of 4.21.
`CC1(C)CNC(=NN=C(/C=C/c2ccc(C(F)(F)F)cc2)/C=C/c2ccc(C(F)(F)F)cc2)NC1` had a logP of 2.31.
Compound `CCOC(=O)CCCOc1ccc(Cl)cc1C` came in with a logP of 4.26.
With `CC(C)(C)c1ccc(CSc2cnn(C(C)(C)C)c(=O)c2Cl)cc1`, the logP is 6.37.
As to `CN(C)C(=O)SCCCCOc1ccccc1`, the logP turned out to be 3.28.
Compound `CCOC(=O)Nc1cccc(OC(=O)Nc2ccccc2)c1` returned a logP of 3.39.
On the same count and under the same terms, with `N#CC(=NOCC1OCCO1)c1ccccc1` the figure was 2.76; with `CCOC(=O)CCN(Cc1ccccc1)SN(C)C(=O)O/N=C(/C)SC`, 3.43.
In turn, `C=CCN(CC=C)C(=O)C(Cl)Cl` showed a logP of 1.84.
`CCOc1ccc(C(C)(C)COCc2cccc(Oc3ccccc3)c2)cc1`: the logP came to 7.05.
Still for that read-out and setting: the value for `CCOCN(C(=O)CCl)c1c(C)cccc1CC` was 3.03; that for `OC(c1ccc(F)cc1)(c1cncnc1)c1ccccc1Cl` (centres undefined) was 3.18.
In turn, `COC(=O)Nc1cccc(OC(=O)Nc2cccc(C)c2)c1` registered a lipophilicity (logP) of 3.59.
With `CC(Oc1ccc(Oc2cnc3cc(Cl)ccc3n2)cc1)C(=O)OCC1CCCO1` (centres undefined), the logP came out at 4.32.
As to `CCOP(=S)(NC(C)CC)Oc1cc(C)ccc1[N+](=O)[O-]` (centres undefined), the logP came to 4.62.
In the case of `Cc1cnc(C2=NC(=O)C(C)(C(C)C)N2)c(C(=O)O)c1` (centres undefined), the lipophilicity (logP) turned out to be 2.47.
Regarding `S=C([S-])NCCNC(=S)[S-].[Na+].[Na+]`, the solubility (commonly the concentration that dissolves in the medium under given conditions) was found to be 780 mM.
Regarding `O=C(NC(=O)c1c(F)cccc1F)Nc1ccc(Cl)c(Oc2ncc(C(F)(F)F)cc2Cl)c1`, the logP was found to be 5.1.
`CCCCCOC(=O)COc1cc(N2C(=O)C3=C(CCCC3)C2=O)c(F)cc1Cl` gave a log partition coefficient (logP) of 4.99.
With `O=C(O)COc1ccc(Cl)cc1CO`, the solubility was found to be 9.23 mM (≈ 2000 µg/mL).
Regarding `CCOC(=O)Cn1c(=O)sc2cccc(Cl)c21`, the logP was 2.5.
Still for that read-out and setting: with `CCCCCCCCSCCO` the figure was 3.64; with `CCCCC(CC)CN1C(=O)C2C3C=CC(C3)C2C1=O` (centres undefined), 3.7.
For the compound `O=C1CCc2cccc3c2N1CC3`, the logP was determined as 1.57.
Still for that read-out and setting: with `CC(Oc1ccc(Oc2ncc(Cl)cc2Cl)cc1)C(=O)N1CCCO1` (centres undefined) the figure was 3.36; with `COP(=S)(OC)Oc1c(Cl)cc(C)cc1Cl`, 4.56; with `CCN(CC)C(=O)SCc1ccccc1Cl`, 3.43.
The same measure, in the same setting: with `COc1ccc(C(=CC(=O)N2CCOCC2)c2ccc(Cl)cc2)cc1OC` the figure was 2.68.
`N=C(N)NCCCCCCCCNCCCCCCCCNC(=N)N` displayed a solubility of 2150 mM (≈ 764000 µg/mL).
In turn, `CC(C)C(O)(c1ccc(OC(F)(F)F)cc1)c1cncnc1` (centres undefined) displayed a log partition coefficient (logP) of 3.34.
The same measure, in the same setting: the value for `CCCCN(CC)C(=O)SCCC` was 3.83.
Consider `O=C(NC(=O)c1c(F)cccc1F)Nc1cc(Cl)c(Oc2ncc(C(F)(F)F)cc2Cl)c(Cl)c1`, for which the lipophilicity (logP) was found to be 5.8.
`CC1COc2ccccc2N1C(=O)C(Cl)Cl` (centres undefined) registered a logP of 2.7.
`COP(=S)(OC)SCC(=O)N(c1ccc(Cl)cc1)C(C)C`: the lipophilicity (logP) amounted to 3.81.
Regarding `C=CCNC(=O)CN(CC=C)C(=O)C(Cl)Cl`, the logP is 1.
Same read-out and setting: the value for `CC(C)(C)c1ccc(CCOc2ncnc3ccccc23)cc1` was 5.51; that for `CCOP(=S)(OCC)OC(Cl)C(Cl)(Cl)Cl` (centres undefined) was 4.59.
Compound `N#Cc1c[nH]cc1-c1cccc2c1OC(F)(F)O2` displayed a log partition coefficient (logP) of 4.12.
In the case of `COCC(C)N(C(=O)CCl)c1c(C)csc1C` (centres undefined), the logP is 2.15.
As for `O=C1c2ccccc2C(=O)C1C(=O)C(c1ccccc1)c1ccccc1`, the solubility is 0.000881 mM (≈ 0.3 µg/mL).
On to `CNC(=O)N(C)c1nc2ccccc2s1`, for which the logP was found to be 2.64.
Consider `c1coc(-c2nc3ccccc3[nH]2)c1`, for which the lipophilicity (logP) was determined as 2.67.
Same read-out and setting: the value for `CCOCCOC(=O)C(C)Oc1ccc(Oc2ncc(C(F)(F)F)cc2Cl)cc1` (centres undefined) was 4.33.
Same read-out and setting: with `COCCOc1ccccc1S(=O)(=O)N=C(O)N=c1nc(OC)[nH]c(OC)n1` the figure was 2.04.
`C=C(C)CN(CC)c1c([N+](=O)[O-])cc(C(F)(F)F)cc1[N+](=O)[O-]` had a logP of 5.11.
Compound `CN(C)C(O)=Nc1ccc(-n2nc(C(C)(C)C)oc2=O)c(Cl)c1` displayed a logP of 2.51.
Regarding `O=C1C(Cl)C(CCl)CN1c1cccc(C(F)(F)F)c1` (centres undefined), the log partition coefficient (logP) was 3.36.
Turning to `CCCCCCCCn1sccc1=O`, the logP was found to be 2.45.
Turning to `O=C1C(Cl)=C(Cl)C(=O)N1c1ccc(F)cc1`, the logP turned out to be 2.3.

Still in this data set, the particulars now being: 20 °C.
`COC(=O)/C(C)=C/OP(=S)(OC)OC` had a solubility of 1.67 mM (≈ 400 µg/mL).
As for `CNC(=O)Oc1ccc(C)c(C)c1`, the solubility came to 7.25 mM (≈ 1300 µg/mL).
Compound `COP(=O)(OC)O/C(=C\Cl)c1ccc(Cl)cc1Cl` showed a solubility of 0.392 mM (≈ 130 µg/mL).
Turning to `CNC(=O)Oc1cc(C)c(SC)c(C)c1`, the solubility worked out at 0.0729 mM (≈ 16.4 µg/mL).
In turn, `CN(C(O)=NC(C)(C)c1ccccc1)c1ccccc1` had a solubility of 0.447 mM (≈ 120 µg/mL).
`CCN(C(=O)SCc1ccccc1)C(C)C(C)C` (centres undefined) returned a solubility of 0.0185 mM (≈ 4.9 µg/mL).
With `ClC1=C(Cl)C(Cl)(C2(Cl)C(Cl)=C(Cl)C(Cl)=C2Cl)C(Cl)=C1Cl`, the solubility was 5.27e-05 mM (≈ 0.025 µg/mL).

Values taken from the OPERA property sets (Mansouri et al. 2018).
